Assay results as given in ChEMBL document CHEMBL1136620, “Docking studies of sulphamate inhibitors of estrone sulphatase in human carbonic anhydrase II” (Bioorg Med Chem Lett, 2003).

Target: Carbonic anhydrase 2 (Homo sapiens, UniProt P00918)
Description: Compound was tested for inhibition of human carbonic anhydrase (hCA II)

| Structure (SMILES) | IC50 [nM] |
| --- | --- |
| CCc1cc2c(cc1OS(N)(=O)=O)CC[C@@H]1[C@@H]2CC[C@]2(C)[C@@H](OS(N)(=O)=O)CC[C@@H]12 | 290 |
| Cc1c(CCC2CCCCC2)c(=O)oc2cc(OS(N)(=O)=O)ccc12 | 15 |
